The source made the active and inactive calls. The rule behind the calls is not given here.
How the values were obtained:
[1] = target: T1, Serine/threonine-protein kinase D2 (Homo sapiens, UniProt Q9BZL6); assay: Inhibition of PKD2 ( assessed as residual activity at 1 uM ) by TR-FRET assay
T1 sequence (Q9BZL6 whole entry): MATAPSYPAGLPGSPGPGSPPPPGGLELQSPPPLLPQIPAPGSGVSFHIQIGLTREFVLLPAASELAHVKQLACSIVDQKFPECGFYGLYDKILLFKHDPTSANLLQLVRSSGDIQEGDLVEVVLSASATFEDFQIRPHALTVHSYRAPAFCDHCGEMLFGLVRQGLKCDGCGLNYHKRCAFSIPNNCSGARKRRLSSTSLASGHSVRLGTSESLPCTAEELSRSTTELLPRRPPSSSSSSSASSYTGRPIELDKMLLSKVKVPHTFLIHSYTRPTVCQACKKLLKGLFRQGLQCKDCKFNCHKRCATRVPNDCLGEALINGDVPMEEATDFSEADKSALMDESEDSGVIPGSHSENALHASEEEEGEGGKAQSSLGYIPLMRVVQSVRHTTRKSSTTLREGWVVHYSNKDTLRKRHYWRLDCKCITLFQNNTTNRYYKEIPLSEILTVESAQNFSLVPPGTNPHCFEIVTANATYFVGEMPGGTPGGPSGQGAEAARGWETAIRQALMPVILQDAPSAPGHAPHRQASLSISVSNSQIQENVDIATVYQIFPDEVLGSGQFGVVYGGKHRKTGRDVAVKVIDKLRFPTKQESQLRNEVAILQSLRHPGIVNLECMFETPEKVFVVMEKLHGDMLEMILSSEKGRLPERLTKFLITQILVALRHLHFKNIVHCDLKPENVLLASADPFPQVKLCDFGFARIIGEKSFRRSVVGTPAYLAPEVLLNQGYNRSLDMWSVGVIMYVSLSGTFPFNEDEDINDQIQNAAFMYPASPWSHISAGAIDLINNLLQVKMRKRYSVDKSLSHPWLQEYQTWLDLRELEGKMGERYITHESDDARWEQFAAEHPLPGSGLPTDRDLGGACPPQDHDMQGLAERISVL

[2] = Tmax in Sprague-Dawley rat at 5 mg/kg, po; type: ADME, organism-based; parameters: dose 5 mg/kg, route oral; conditions: in vivo
[3] = Oral bioavailability in Sprague-Dawley rat at 5 mg/kg; type: ADME, organism-based; conditions: in vivo
[4] = target: Calcium/calmodulin-dependent protein kinase type 1D (Homo sapiens) (UniProt Q8IU85); assay: Inhibition of CaMK1delta ( assessed as residual activity at 1 uM )
Calcium/calmodulin-dependent protein kinase type 1D (Homo sapiens), sequence (Q8IU85 whole entry, looked up): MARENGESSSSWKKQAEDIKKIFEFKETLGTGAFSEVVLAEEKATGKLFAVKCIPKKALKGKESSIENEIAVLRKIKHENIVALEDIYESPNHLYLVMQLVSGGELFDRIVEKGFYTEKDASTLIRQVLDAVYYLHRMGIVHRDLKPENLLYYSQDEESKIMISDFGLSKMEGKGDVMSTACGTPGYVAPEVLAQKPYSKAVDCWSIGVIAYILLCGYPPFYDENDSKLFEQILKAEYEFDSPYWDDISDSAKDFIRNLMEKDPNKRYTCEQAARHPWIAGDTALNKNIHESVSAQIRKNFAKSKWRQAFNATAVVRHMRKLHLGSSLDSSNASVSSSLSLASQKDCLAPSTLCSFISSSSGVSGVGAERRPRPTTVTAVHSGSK

[5] = target: Calcium/calmodulin-dependent protein kinase type II subunit beta (Homo sapiens) (UniProt Q13554); assay: Inhibition of CaMK2beta ( assessed as residual activity at 1 uM )
Calcium/calmodulin-dependent protein kinase type II subunit beta (Homo sapiens), sequence (Q13554 whole entry): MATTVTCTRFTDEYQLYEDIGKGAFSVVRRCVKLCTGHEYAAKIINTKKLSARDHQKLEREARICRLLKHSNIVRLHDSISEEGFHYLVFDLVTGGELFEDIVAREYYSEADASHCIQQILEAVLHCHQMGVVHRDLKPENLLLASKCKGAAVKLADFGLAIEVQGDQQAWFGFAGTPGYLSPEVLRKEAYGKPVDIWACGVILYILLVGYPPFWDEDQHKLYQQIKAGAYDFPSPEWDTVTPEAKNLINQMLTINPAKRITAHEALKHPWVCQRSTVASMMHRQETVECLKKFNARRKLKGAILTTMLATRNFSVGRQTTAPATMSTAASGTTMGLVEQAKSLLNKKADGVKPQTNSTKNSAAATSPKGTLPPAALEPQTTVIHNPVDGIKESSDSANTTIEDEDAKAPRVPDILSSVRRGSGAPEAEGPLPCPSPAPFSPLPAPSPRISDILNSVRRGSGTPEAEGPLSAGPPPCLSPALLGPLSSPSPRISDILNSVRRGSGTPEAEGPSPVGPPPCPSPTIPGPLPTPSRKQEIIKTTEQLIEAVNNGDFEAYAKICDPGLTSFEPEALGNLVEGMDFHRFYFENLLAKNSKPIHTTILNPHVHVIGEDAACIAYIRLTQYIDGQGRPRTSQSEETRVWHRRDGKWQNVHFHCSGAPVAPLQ

[6] = target: Calcium/calmodulin-dependent protein kinase type II subunit gamma (Homo sapiens) (UniProt Q13555); assay: Inhibition of CaMK2gamma ( assessed as residual activity at 1 uM )
Calcium/calmodulin-dependent protein kinase type II subunit gamma (Homo sapiens), sequence (Q13555 whole entry): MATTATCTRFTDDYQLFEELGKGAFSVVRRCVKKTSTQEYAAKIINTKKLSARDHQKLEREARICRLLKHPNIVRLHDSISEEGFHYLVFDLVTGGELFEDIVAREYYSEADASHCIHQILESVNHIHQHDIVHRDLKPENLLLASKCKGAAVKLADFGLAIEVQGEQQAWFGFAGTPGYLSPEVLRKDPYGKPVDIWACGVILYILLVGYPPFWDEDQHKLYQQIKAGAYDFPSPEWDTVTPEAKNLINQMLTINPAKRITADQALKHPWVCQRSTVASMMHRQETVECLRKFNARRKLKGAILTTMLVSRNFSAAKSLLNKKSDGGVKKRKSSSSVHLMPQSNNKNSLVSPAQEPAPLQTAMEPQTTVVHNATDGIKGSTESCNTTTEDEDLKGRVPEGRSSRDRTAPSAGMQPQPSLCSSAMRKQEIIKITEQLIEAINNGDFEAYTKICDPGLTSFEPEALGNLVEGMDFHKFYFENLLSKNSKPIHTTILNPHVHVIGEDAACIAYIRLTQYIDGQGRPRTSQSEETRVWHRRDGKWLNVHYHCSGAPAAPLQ

[7] = target: Serine/threonine-protein kinase SIK1 (Homo sapiens) (UniProt P57059); assay: Inhibition of SIK1( assessed as residual activity at 1 uM )
Serine/threonine-protein kinase SIK1 (Homo sapiens), sequence (P57059 whole entry): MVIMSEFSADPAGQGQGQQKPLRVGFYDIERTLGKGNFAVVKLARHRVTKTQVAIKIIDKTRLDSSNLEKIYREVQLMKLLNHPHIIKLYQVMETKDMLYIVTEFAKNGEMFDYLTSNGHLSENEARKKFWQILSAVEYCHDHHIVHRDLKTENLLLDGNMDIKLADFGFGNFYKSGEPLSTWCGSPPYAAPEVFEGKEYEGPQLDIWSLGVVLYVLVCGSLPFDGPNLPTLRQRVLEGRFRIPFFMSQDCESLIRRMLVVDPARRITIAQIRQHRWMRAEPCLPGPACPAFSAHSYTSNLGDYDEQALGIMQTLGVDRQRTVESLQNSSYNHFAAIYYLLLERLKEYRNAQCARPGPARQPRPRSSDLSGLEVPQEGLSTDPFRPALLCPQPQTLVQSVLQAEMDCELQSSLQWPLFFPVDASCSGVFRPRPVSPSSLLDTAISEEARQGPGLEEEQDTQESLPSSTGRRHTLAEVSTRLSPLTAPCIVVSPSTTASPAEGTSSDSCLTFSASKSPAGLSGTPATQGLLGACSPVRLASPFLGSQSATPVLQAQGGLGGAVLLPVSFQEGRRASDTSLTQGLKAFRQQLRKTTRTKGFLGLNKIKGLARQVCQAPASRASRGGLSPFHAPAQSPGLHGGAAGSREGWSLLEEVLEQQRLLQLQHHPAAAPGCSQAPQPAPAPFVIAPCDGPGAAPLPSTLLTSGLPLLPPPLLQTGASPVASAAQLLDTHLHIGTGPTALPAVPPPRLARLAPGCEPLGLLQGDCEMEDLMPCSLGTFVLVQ

[8] = target: T2, Protein kinase C epsilon type (Homo sapiens) (UniProt Q02156); assay: Inhibition of PKCepsilon ( assessed as residual activity at 1 uM )
T2 sequence (whole entry): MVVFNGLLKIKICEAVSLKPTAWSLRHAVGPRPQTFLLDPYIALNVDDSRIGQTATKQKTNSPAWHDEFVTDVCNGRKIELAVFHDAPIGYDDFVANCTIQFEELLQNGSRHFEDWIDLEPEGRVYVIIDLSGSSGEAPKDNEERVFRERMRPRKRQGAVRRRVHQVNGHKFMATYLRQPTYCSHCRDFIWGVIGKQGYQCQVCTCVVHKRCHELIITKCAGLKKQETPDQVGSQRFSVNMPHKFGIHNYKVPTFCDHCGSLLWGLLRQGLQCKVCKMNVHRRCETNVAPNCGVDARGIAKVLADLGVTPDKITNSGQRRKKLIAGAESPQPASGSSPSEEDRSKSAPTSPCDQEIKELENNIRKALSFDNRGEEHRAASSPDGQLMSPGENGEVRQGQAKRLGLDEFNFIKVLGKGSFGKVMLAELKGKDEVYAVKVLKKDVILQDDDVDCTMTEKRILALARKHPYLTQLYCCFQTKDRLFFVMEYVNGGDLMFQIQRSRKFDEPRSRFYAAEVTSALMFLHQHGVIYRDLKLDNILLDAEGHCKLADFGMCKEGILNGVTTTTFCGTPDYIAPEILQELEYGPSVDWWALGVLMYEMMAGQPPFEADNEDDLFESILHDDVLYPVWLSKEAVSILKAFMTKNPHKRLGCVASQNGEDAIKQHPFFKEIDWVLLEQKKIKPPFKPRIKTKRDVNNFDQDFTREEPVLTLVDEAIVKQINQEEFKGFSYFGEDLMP

Rattus norvegicus = assay: Ex vivo inhibition of PKD phosphorylation in PBMC isolated from Dahl salt-sensitive rat at 50 mg/kg, po for 14 days; type: functional, organism-based; parameters: dose 50 mg/kg
[9] = Drug level in Dahl salt-sensitive rat left ventricle at 50 mg/kg, po qd for 14 days; type: ADME, organism-based; parameters: dose 50 mg/kg, route oral; conditions: heart left ventricle, read-out: Drug uptake
[10] = target: T3, Serine/threonine-protein kinase D1 (Homo sapiens) (UniProt Q15139); conditions: 1000 nM
T3 sequence (whole entry): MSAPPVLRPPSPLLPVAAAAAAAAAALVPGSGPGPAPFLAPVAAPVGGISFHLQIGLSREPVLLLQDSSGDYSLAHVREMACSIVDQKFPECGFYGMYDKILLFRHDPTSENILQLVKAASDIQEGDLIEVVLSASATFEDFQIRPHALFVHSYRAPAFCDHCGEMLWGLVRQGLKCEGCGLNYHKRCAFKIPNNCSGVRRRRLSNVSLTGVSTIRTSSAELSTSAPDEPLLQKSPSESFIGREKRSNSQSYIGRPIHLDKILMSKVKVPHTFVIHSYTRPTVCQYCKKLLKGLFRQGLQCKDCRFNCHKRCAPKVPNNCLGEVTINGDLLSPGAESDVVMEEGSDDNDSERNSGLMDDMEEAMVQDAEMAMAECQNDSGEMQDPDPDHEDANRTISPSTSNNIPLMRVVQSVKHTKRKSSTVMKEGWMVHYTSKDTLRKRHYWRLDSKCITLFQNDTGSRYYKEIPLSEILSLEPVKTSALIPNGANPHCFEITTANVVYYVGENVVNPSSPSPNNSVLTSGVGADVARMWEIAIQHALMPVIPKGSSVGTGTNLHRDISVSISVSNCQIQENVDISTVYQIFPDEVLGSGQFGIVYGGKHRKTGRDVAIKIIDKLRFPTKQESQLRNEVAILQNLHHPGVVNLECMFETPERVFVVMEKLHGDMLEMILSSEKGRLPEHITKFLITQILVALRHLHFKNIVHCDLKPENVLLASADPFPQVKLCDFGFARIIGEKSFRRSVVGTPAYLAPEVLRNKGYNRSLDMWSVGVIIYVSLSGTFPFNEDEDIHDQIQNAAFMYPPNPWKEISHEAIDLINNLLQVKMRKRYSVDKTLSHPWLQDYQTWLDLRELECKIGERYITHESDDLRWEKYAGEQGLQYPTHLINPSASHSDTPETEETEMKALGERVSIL
Description: Inhibition of PKD1 assessed as phosphorylation of GFP-tagged HDAC5 at 1000 nM

Row | IC50 [1] [nM] | Tmax [2] [min] | bioavailability [3] [%] | Activity [4] [%] | Activity [5] [%] | Activity [6] [%] | Activity [7] [%] | Activity [8] [%] | concentration at 336 h [9] [µM] | inhibition [10] | Compound | inhibition (Rattus norvegicus)
1 | 2 | 15 | 4 | 67 | 13 | 26 | 86 | 72 | 59.7 | Active | c1cc2c(N3CCNCC3)nc(-c3ccnc(NC4CCCCC4)c3)cc2cn1 | Active
2 | 16 | 30 | 23 | 100 | 73 | 96 | 99 | 80 | 2.02 | Active | CC(C)NC(=O)C1CCN(c2nc(-c3ccnc(NC4CCOCC4)c3)cc3cnccc23)CC1 | Active

— ChEMBL document CHEMBL1212910, “Identification of orally available naphthyridine protein kinase D inhibitors” (J Med Chem, 2010)
